This note sets out measurements from patent publication US20170007709A1, “GLYCOAMINO ACID AND USE THEREOF” (AJINOMOTO CO., INC., priority 2014, published 2017).

The nature of data set [1]: Solubility evaluation in water at 25° C. The data set is classed as physicochemical. As to conditions: for solubility, amino acid-converted weight concentration / solubility, weight concentration: water, stirred for 2 days. As for the experimental part: The concentration was measured by HPLC. […] Similarly, the solubility of DOPA and DOPA-Glc was measured. […] Furthermore, the solubility of DOPA and DOPA-Glc was similarly measured using water (0.5 ml) in a thermostatic tank at 25° C. […] Therefore, the samples were diluted, and solubility was measured by HPLC.

Data set [2] in a line: Dissolution rate evaluation in water. In kind it is physicochemical. The following applies: 25 ml stirring water, inside temperature 32° C., n=1. As for the experimental part: Val, Ile, Leu or glycoamino acid corresponding thereto (Val-Glc, Ile-Glc, Leu-Glc) were each added to stirring water (25 ml, inside temperature 32° C.) in a hot-water bath at 35° C., and the dissolution rate was measured. As compared to Val, Ile and Leu, Val-Glc, Ile-Glc and Leu-Glc were dissolved 4-19 times faster in equal weight and 2-19 times faster in equimolar amount.

Data set [3] in a line: Animal evaluation: blood amino acid concentration after oral administration. The data set is classed as in vivo. As to conditions: male SD rats fasted overnight. As for the experimental part:
Leu, Val, Ile and glycoamino acid corresponding thereto (Leu-Glc, Val-Glc, Ile-Glc) were each dissolved or suspended in distilled water to a given dose and orally administered to male 13-week-old SD rats (Japan Charles River) that was fasted overnight. Blood samples were collected from the rat tail vein before administration and 15 min, 30 min, 60 min, 90 min, 120 min after administration and partly 180 min and 300 min after administration. After separation into plasma, protein elimination and ultrafiltration with 15% sulfosalicylic acid solution was performed. The filtrate was mixed with 0.02 mmol/L hydrochloric acid at 1:1, analyzed by an amino acid analyzer (JEOL Ltd.), and blood amino acid concentration was determined.

The subject of data set [4] is pronase. Briefly: Enzyme evaluation: liberation of leucine by pronase. The data set is classed as in vitro ADME. The following applies: 37° C., 30 min later. As for the experimental part: Leu-Glc (10 mg) was dissolved in water (1 ml), pronase (0.1% aqueous solution, 100 μl) was added, and the mixture was stirred in a hot-water bath at 37° C. The mixture was diluted 10-fold with 1% aqueous phosphoric acid solution, and analyzed by HPLC.
HPLC analysis conditions were as described below.
column: […] MG (4.6×250 mm, 5 μm) column temperature: 40° C. mobile phase: A: 100 mM KH2PO4, 5 mM sodium 1-octanesulfonate (pH 2.2) B: acetonitrile eluent: A/B=9/1 isocratic flow rate: 1.5 ml/min detection: photodiode array detector measurement wavelength 210 nm injection volume: 10 μL

For `N[C@@H](Cc1ccc(O)c(O)c1)C(=O)O` [DOPA, 3,4-dihydroxy-L-phenylalanine, reference compound], in data set [1] (HPLC), the “solubility, amino acid-converted weight concentration” value is on record as 0.31 g/100 g water and the “solubility, weight concentration” value came out at 0.31 g/100 g water.

On to `N[C@@H](Cc1ccc(O)c(O)c1)C(=O)N[C@@H]1O[C@H](CO)[C@@H](O)[C@H](O)[C@H]1O` [DOPA-Glc, N-(3,4-dihydroxy-L-phenylalanyl)-β-D-glucopyranosylamine], for which, in data set [1] (water 0.5 ml, samples diluted, HPLC), the “solubility as compared to that of DOPA” value is “not less than 690 fold”. In data set [1] (water 1 ml), the “solubility as compared to the corresponding amino acid” value is “not less than 135 times” and the “weight concentration at which still dissolved” value is at least 93.8 g/100 g water. Also, in data set [1] (HPLC), the “solubility, amino acid-converted weight concentration” value was above 215 g/100 g water and the “solubility, weight concentration” value is given as above 392 g/100 g water.

As for `CC[C@H](C)[C@H](N)C(=O)O` [Ile, L-isoleucine, reference compound], the “dissolution rate, amino acid (XXX)” value is “(285 sec)” in data set [2] (equal weight (Table 3)) and “(280 sec)” in data set [2] (equimolar quantity (Table 2)). For the same compound, in data set [1] (HPLC), the “solubility, amino acid-converted weight concentration” value was 4.1 g/100 g water. Besides, in data set [1] (HPLC), the “solubility, weight concentration” value amounted to 4.1 g/100 g water.

As to `CC[C@H](C)[C@H](N)C(=O)N[C@@H]1O[C@H](CO)[C@@H](O)[C@H](O)[C@H]1O` [Ile-Glc, N-(L-isoleucyl)-β-D-glucopyranosylamine], in data set [2] (equal weight (Table 3)), the “dissolution rate, glycoamino acid (XXX-Glc)” value (“dissolution rate … (XXX-Glc)” below) was 15 s. The “dissolution rate … (XXX-Glc)” value in data set [2] (equimolar quantity (Table 2)) turned out to be 15 s. In data set [1] (HPLC), the “solubility, amino acid-converted weight concentration” value came to 14.7 g/100 g water and the “solubility, weight concentration” value was found to be 32.8 g/100 g water. In data set [3], the “blood Ile concentration” value was “increased”.

In the case of `CC(C)C[C@H](N)C(=O)O` [Leu, L-leucine, reference compound], the “dissolution rate, amino acid (XXX)” value in data set [2] (equal weight (Table 3)) is given as “(330 sec)”. Besides, the “dissolution rate, amino acid (XXX)” value in data set [2] (equimolar quantity (Table 2)) is reported as “(191 sec)”. In addition, in data set [1] (HPLC), the “solubility, amino acid-converted weight concentration” value amounted to 2.4 g/100 g water and the “solubility, weight concentration” value was found to be 2.4 g/100 g water.

`CC(C)C[C@H](N)C(=O)N[C@@H]1O[C@H](CO)[C@@H](O)[C@H](O)[C@H]1O` [Leu-Glc, N-(L-leucyl)-β-D-glucopyranosylamine]: the “remaining Leu-Glc” value in data set [4] was “almost disappeared”. Also, the “dissolution rate … (XXX-Glc)” value in data set [2] (equal weight (Table 3)) is 21 s. The “dissolution rate … (XXX-Glc)” value in data set [2] (equimolar quantity (Table 2)) was found to be 21 s. For the same compound, in data set [1] (HPLC), the “solubility, amino acid-converted weight concentration” value is recorded as 28.3 g/100 g water and the “solubility, weight concentration” value stood at 63 g/100 g water. Also, the “blood Leu concentration” value in data set [3] is “increased”.

On to `N[C@@H](Cc1ccc(O)cc1)C(=O)N[C@@H]1O[C@H](CO)[C@@H](O)[C@H](O)[C@H]1O` [Tyr-Glc, N-(L-tyrosyl)-β-D-glucopyranosylamine], for which the “solubility as compared to the corresponding amino acid” value in data set [1] (water 1 ml) came out at 178 times. In addition, in data set [1] (HPLC), the “solubility, amino acid-converted weight concentration” value is reported as 8.92 g/100 g water and the “solubility, weight concentration” value is given as 16.8 g/100 g water.

Turning to `CC(C)[C@H](N)C(=O)O` [Val, L-valine, reference compound], the “dissolution rate, amino acid (XXX)” value in data set [2] (equal weight (Table 3)) is given as “(139 sec)”. In addition, the “dissolution rate, amino acid (XXX)” value in data set [2] (equimolar quantity (Table 2)) is on record as “(80 sec)”. In data set [1] (HPLC), the “solubility, amino acid-converted weight concentration” value is on record as 5.8 g/100 g water and the “solubility, weight concentration” value is reported as 5.8 g/100 g water.

For `CC(C)[C@H](N)C(=O)N[C@@H]1O[C@H](CO)[C@@H](O)[C@H](O)[C@H]1O` [Val-Glc, N-(L-valyl)-β-D-glucopyranosylamine], in data set [2] (equal weight (Table 3)), the “dissolution rate … (XXX-Glc)” value was 33 s. The “dissolution rate … (XXX-Glc)” value in data set [2] (equimolar quantity (Table 2)) was found to be 33 s. In addition, in data set [1] (HPLC), the “solubility, amino acid-converted weight concentration” value amounted to 14.1 g/100 g water and the “solubility, weight concentration” value was 33.5 g/100 g water. Besides, the “blood Val concentration” value in data set [3] is “increased”.
